Measurements from patent US6838253B2, “Regulation of intracellular glucocorticoid concentrations” (The University of Edinburgh, priority 1995, dated 2005).

Assays:
[1] = thymic involution in mice; type: in vivo, mouse; settings: wild-type control mice; homozygous mutant mice resistant
Excerpt: Homozygotes for the mutant allele are morphologically intact and fully fertile. No survival bias is conferred by the mutant allele. However, neither 11β-HSD1 mRNA nor enzyme activity (techniques as above) were detected in mutant homozygotes, and reduced mRNA and activity were detected in heterozygotes.

rat hippocampal cells = assay: kainic acid neurotoxicity, hippocampal cell survival; type: cell-based; settings: for kainic acid neurotoxicity: pretreatment with steroid alone
Excerpt: To assess the influence of 11β-reductase activity on neurotoxicity, cells were exposed to kainic acid and cell survival determined.

adipocytes = settings: higher concentrations (mmol/l), without corticosteroid, reference 37; cited from earlier work
5β-reductase = molecular target: T1, 5β-reductase (Homo sapiens, UniProt P51857); settings: reference 35; cited from earlier work
T1 sequence (P51857 1-326): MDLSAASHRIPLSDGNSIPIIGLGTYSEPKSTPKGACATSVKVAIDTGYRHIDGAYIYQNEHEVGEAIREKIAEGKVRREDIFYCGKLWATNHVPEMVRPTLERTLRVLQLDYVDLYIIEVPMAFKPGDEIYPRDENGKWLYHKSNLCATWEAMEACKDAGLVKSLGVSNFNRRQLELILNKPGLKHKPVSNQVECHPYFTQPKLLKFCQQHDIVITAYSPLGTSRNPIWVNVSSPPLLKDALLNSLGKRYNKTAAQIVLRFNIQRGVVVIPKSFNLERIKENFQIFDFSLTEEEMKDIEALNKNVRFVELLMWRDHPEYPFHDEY

[2] = test system: corticosteroids receptors; settings: reference 36; cited from earlier work
[3] = molecular target: T2, hepatic 11β-reductase activity (Homo sapiens, UniProt P28845); assay: conversion of oral cortisone to cortisol on first pass as index of 11β-reductase activity in vivo in man
T2 construct: from tissue; host or cells: liver of human volunteers, in vivo
T2 sequence (P28845 whole entry): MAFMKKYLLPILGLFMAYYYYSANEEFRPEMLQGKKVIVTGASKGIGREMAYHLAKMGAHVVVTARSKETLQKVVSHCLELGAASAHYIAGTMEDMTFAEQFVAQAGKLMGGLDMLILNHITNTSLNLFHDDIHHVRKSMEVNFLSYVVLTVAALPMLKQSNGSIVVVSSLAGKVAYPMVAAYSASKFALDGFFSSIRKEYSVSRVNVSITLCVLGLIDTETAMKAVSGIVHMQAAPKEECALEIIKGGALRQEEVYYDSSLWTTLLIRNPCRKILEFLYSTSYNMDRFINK
Excerpt: Consistent with the observations in animal tissues and cultured cells described above, we have established the relative activities of 11β-dehydrogenase and 11β-reductase in vivo in different organs in man by measuring the cortisol/cortisone ratio in plasma from selective venous catheterisations. In most organs the venous effluent contains cortisol and cortisone in a ratio of ˜10:1. However, in renal vein plasma the ratio is 3:1, while in hepatic vein plasma the ratio is 55:1, consistent with potent 11β-dehydrogenase activity due to 11β-HSD2 expression in the kidney and potent 11β-reductase 11β-HSD1 activity in the liver. Moreover, cortisone taken orally, and therefore delivered to the liver via the portal vein, is avidly converted on first pass to cortisol in the peripheral circulation. Using this index of 11β-reductase activity we have shown that, in addition to inhibiting renal 11β-dehydrogenase activity, carbenoxolone (but not glycyrrhetinic acid) inhibits hepatic 11β-reductase activity in vivo in man.

[4] = fasting plasma glucose in rats after 14 days of subcutaneous treatment; type: in vivo, rat; settings: 1, 3 or 10 mg daily s.c., male Wistar Hans rats
Protocol: Intact male Wistar Hans rats of body weight 200-250 g were treated with daily subcutaneous injection of 1 ml of either 0.9% saline (vehicle) or carbenoxolone (made up to 1, 3, or 10 mg/ml in 0.9% saline) for 14 days. They were fasted from 4 pm and blood obtained by tail-nick at 9 am the next day. Plasma glucose was measured by a glucose oxidase method on a Beckman CX-3 autoanalyser.

[5] = euglycaemic hyperinsulinaemic clamp study with forearm glucose uptake in healthy male volunteers; type: in vivo, human
Protocol: Seven non-obese (Body Mass Index <25) healthy male Caucasian volunteers on no medication, aged 27-36 years, were given carbenoxolone (100 mg every 8 hours orally) or matched placebo for seven days in a randomised double-blind cross-over design, with phases separated by at least 4 weeks. On the seventh day of each phase euglycaemic hyperinsulinaemic clamp studies with measurement of forearm glucose uptake were performed, as described in detail in reference 16, the content of which is incorporated herein by reference.

11β-reductase activity = molecular target: T3, 11β-reductase activity (Rattus norvegicus, UniProt P16232); assay: 11β-reductase activity in whole primary fetal hippocampal cells in culture; type: cell-based; settings: 10^−6M
T3 construct: endogenous in cells; host or cells: primary cultures of fetal rat hippocampal cells
T3 sequence (P16232 whole entry): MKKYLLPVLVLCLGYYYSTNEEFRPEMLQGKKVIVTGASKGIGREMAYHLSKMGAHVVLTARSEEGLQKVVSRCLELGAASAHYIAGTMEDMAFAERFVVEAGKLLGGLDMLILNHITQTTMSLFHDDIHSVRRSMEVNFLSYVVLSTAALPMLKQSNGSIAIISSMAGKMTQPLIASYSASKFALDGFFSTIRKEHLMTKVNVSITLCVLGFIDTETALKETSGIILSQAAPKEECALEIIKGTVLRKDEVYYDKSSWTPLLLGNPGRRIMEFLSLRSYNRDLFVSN
Excerpt: Hippocampi were dissected from Wistar rat embryos on day 18.5 of pregnancy and cultured in DMEM with supplements, as described. These cells expressed 11β-HSD1 mRNA, and homogenised cells performed either 11β-dehydrogenase or 11β-reductase activity.

glucocorticoid receptors = molecular target: T4, glucocorticoid receptors (Homo sapiens, UniProt P04150); settings: reference 29; cited from earlier work
T4 sequence (P04150 1-777): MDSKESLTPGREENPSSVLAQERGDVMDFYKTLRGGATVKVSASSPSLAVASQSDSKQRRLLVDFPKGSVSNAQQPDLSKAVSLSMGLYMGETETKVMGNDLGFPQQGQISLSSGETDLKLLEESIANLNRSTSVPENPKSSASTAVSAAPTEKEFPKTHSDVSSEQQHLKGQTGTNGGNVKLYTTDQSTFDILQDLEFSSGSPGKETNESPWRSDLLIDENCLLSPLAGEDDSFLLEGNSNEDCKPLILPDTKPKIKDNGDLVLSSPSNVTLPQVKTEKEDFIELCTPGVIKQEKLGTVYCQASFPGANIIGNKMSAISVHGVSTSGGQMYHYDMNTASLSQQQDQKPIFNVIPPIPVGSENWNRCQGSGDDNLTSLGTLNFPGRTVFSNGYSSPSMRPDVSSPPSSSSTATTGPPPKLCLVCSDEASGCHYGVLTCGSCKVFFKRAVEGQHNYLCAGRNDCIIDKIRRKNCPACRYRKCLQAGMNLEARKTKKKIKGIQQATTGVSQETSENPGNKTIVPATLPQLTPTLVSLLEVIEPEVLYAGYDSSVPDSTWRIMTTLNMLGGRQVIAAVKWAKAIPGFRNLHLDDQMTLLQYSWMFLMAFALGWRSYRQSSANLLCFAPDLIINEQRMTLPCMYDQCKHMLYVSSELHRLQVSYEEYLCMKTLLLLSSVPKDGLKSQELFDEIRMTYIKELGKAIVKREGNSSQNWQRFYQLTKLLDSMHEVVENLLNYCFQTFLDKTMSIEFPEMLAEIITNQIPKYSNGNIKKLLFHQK

11β-HSD1 mRNA = assay: northern analysis of hepatic 11β-HSD1 mRNA in treated rats; type: in vivo, rat
Excerpt: (§1) Male Han Wistar rats (200-250 g) underwent gonadectomy and either bilateral adrenalectomy or sham-operation under halothane anaesthesia. For estradiol administration, silicone elastomer capsules (1.95 mm internal diameter, 3.125 mm external diameter) (Dow Corning Corporation, Midland, Mich., USA) containing 17β-estradiol (Sigma, Poole, UK) were implanted subcutaneously. For animals treated for 42 days with estradiol, the capsules were removed and replaced after 21 days. Control animals were implanted with blank capsules. Adrenalectomised rats were maintained on 0.9%. saline. Rats were killed 10, 21 or 42 days after surgery. Liver and hippocampus were removed and dissected on ice for assay of 11β-HSD activity and an aliquot of liver was frozen on dry ice and stored at −80° C. until extraction of RNA.
Total RNA was extracted from liver tissue by the guanidinium thiocyanate method, as described and resuspended in diethylpyrocarbonate-treated water. RNA concentration and purity was assayed spectrophotometrically. 20 μg aliquots were separated on a 1.2% agarose gel containing 2% formaldehyde. […] Optical density was determined using a computer-driven image analysis system (Seescan plc, Cambs, UK). Values were expressed as a percentage of control levels.

11β-HSD = 11β-HSD activity in tissue homogenates of treated gonadectomised rats; type: in vivo, rat
Excerpt: as §1
Tissues were homogenised in Krebs-Ringer bicarbonate buffer with 0.2% glucose, pH 7.4, and assayed as described previously. Homogenates (6.25 μg of liver protein, 250 μg of hippocampal protein) were incubated with 200 μM NADP (Sigma, Poole, UK) and 12 nM [^3H]-corticosterone (specific activity 84 Ci/mmol; Amersham International, Aylesbury, UK) in a total volume of 250 μl with […] 11β-dehydrogenase activity was quantified in this assay as a measure of active enzyme since 11β-reductase is unstable in homogenates. Steroids were extracted with ethyl acetate and separated by HPLC with on-line β courtier. 11β-HSD activity was expressed as conversion of corticosterone to 11-dehydrocorticosterone, after correction for apparent conversion in incubates without enzyme (<3%).

PEPCK mRNA = assay: northern analysis of hepatic PEPCK mRNA in treated rats; type: in vivo, rat
Excerpt: as §1
Total RNA was extracted from liver tissue by the guanidinium thiocyanate method, as described and resuspended in diethylpyrocarbonate-treated water. RNA concentration and purity was assayed spectrophotometrically. 20 μg aliquots were separated on a 1.2% agarose gel containing 2% formaldehyde. RNA was blotted onto nitrocellulose membranes (Hybond-N, Amersham International, UK), prehybridized in 6 ml phosphate buffer (0.2 M NaH2PO4, 0.6 M NaH2PO4, 5 mM EDTA), 3 ml 20% SDS and 100 μg denatured herring testis DNA (Sigma, Poole, UK) for 2 h at 55° C. and hybridized at 55° C. overnight in the same solution containing rat 11β-HSD1 or PEPCK cDNA, labelled with ^32P-dCTP using a random primed DNA labelling kit (Boehringer Mannheim UK Ltd., Lewes, UK). Three 20 min washes were carried out at room temperature in 1×SSC (0.3 M NaCl, 0.03 M sodium citrate), 0.1% SDS followed by a stringent wash at 55° C. for 30 min in 0.3×SSC, 0.1% SDS. Filters were exposed to autoradiographic film for 1-4 days (adjusted to ensure the signal density was within the linear range). […] Optical density was determined using a computer-driven image analysis system (Seescan plc, Cambs, UK). Values were expressed as a percentage of control levels.

[6] = 100 mg every 8 hours orally, seven days
[7] = 100 mg every 8 hours orally, seven days, healthy men

With C[C@]12CC(=O)[C@H]3[C@@H](CCC4=CC(=O)CC[C@@]43C)[C@@H]1CC[C@@H]2C(=O)CO [11-dehydrocorticosterone] the thymic involution [1] was “thymic involution seen” and the kainic acid neurotoxicity (rat hippocampal cells) was “potentiated”.

In the case of CC1(C)[C@@H](OC(=O)CCC(=O)O)CC[C@]2(C)[C@H]3C(=O)C=C4[C@@H]5C[C@@](C)(C(=O)O)CC[C@]5(C)CC[C@@]4(C)[C@]3(C)CC[C@@H]12 [carbenoxolone, 3β-(3-carboxypropionyloxy)-11-oxo-olean-2-en 30-oic acid], the “action of insulin in adipocytes” value (adipocytes) is given as “antagonises”, the 5β-reductase inhibition (5β-reductase) is given as “inhibits” and the “affinity for corticosteroids receptors in vitro” value [2] is given as “low affinity”. The “effect on 11β-reductase in vivo” value [3] was “inhibits”, the “hepatic 11β-reductase activity in vivo in man” value ([3]; oral cortisone converted to cortisol, man) was “inhibits” and the fasting glucose concentrations [4] was “dose-dependent fall”. The blood pressure [5, 6] was “not elevated”, the forearm blood flow [5, 6] was “not elevated” and the fasting glucose concentration [5, 7] was “no change”. The fasting insulin concentration [5, 7] was “fall”, the “plasma renin, aldosterone, and potassium concentrations” value ([5]; consequent on renal effects) was “suppressed” and the “peripheral glucose uptake as measured by forearm glucose uptake” value ([5]; euglycaemic clamp, day 7, versus placebo) was “No difference was detected”. The “11β-reductase activity in whole hippocampal cells” value (11β-reductase activity) was “almost abolished”, the “potentiating effect of 11-dehydrocorticosterone on kainic acid neurotoxicity” value (rat hippocampal cells; with 11-dehydrocorticosterone) was “protected the cells” and the “effect of corticosterone on kainic acid neurotoxicity” value (rat hippocampal cells; with corticosterone) was “did not alter”.

With C[C@]12C[C@H](O)[C@H]3[C@@H](CCC4=CC(=O)CC[C@@]43C)[C@@H]1CC[C@@H]2C(=O)CO [corticosterone] the kainic acid neurotoxicity (rat hippocampal cells) was “potentiated”.

In the case of C[C@]12CCC(=O)C=C1CC[C@@H]1[C@@H]2[C@@H](O)C[C@@]2(C)[C@H]1CC[C@]2(O)C(=O)CO [cortisol], the “affinity of glucocorticoid receptors relative to mineralocorticoid receptors” value (glucocorticoid receptors) is listed as 10-40 times lower.

In the case of C[C@]12CC[C@@H]3c4ccc(O)cc4CC[C@H]3[C@@H]1CC[C@@H]2O [estradiol, 17β-estradiol], the “liver 11β-HSD1 mRNA in adrenalectomised rats” value (11β-HSD1 mRNA; adrenalectomised, 21 days) is reported as “reduced”, the “hepatic 11β-HSD1 mRNA expression” value (11β-HSD1 mRNA; after 21 and 42 days, gonadectomised male rats) is reported as “undetectable levels” and the “hepatic 11β-HSD activity” value (11β-HSD; 10, 21 and 42 days, gonadectomised male rats) is reported as “marked decreases”. For the same compound, the “11β-HSD activity in the hippocampus” value (11β-HSD; 21 or 42 days) was “not altered”, the “conversion of corticosterone to 11-dehydrocorticosterone in liver homogenates” value (11β-HSD; 42 days of treatment, prolonged (60 min) incubation) was 12.2±14.7% and the “liver 11β-HSD1 activity in adrenalectomised rats” value (11β-HSD; adrenalectomised, 21 days) was “reduced”. The “PEPCK mRNA levels in adrenalectomised rats” value (PEPCK mRNA; adrenalectomised, 21 days, compared with adrenalectomy alone) was “increased”, the “hepatic PEPCK gene expression” value (PEPCK mRNA; after 21 days, adrenally intact) was “decreased” and the “PEPCK mRNA expression” value (PEPCK mRNA; after 42 days) was “significantly reduced”.

For CC1(C)[C@@H](O)CC[C@]2(C)[C@H]3C(=O)C=C4[C@@H]5C[C@@](C)(C(=O)O)CC[C@]5(C)CC[C@@]4(C)[C@]3(C)CC[C@@H]12 [glycyrrhetinic acid], the “effect on 11β-reductase in vivo” value [3] was “no effect”.
